Test results reported in patent publication US4552965A, “2α, 3β, 4aβ, 8aα-Decahydro-3-(4-phenyl-1-piperidinyl)-2-naphthalenol” (University of California, priority 1984, dated 1985).

System: Torpedo californica electric organ synpatic vesicles
Assay: Inhibition of ATP-dependent uptake of radioactive ACh by purified Torpedo electric organ synaptic vesicles in vitro
Format: biochemical
Settings: for IC50: purified Torpedo vesicles, room temperature, approximately 30 minutes, neutral pH, approximately 5 mM ATP, 50 μM radioactive ACh, read-out: IC50 (inhibition of vesicular ACh uptake)
Description: For example, purified Torpedo californica electric organ synpatic vesicles uptake ACh in vitro in the presence of ATP. Such vesicles are incubated at room temperature for approximately 30 minutes in isosmotic buffer at neutral PH, the buffer containing approximately 5 mM ATP and 50 μM radioactive ACh, and the radioactivity accumulated by the washed vesicles is then measured by liquid scintillation spectroscopy. By varying the concentration of the compound to be tested to determine its inhibitory effect on ACh uptake, a dose response curve can be deduced including the IC50.

Row | SMILES | IC50 | concentration needed relative to DPPN for comparable blockade of vesicular uptake of ACh (relative to DPPN) | times more effective than AH 5183 in preventing ACh uptake by the vesicles (relative to AH 5183)
1 | OC1CCCCC1N1CCC(c2ccccc2)CC1 (stereo not shown) [AH 5183, 2-(4-Phenylpiperidino)-cyclohexanol] | 40 µM | at least four | 
2 | O[C@@H]1C[C@H]2CCCC[C@@H]2C[C@H]1N1CCC(c2ccccc2)CC1 (relative stereo) [DPPN, (2α, 3β, 4aβ, 8aα)-decahydro-3-(4-phenyl-1-piperidinyl)-2-naphthalenol] | 10 µM |  | approximately four
